What was measured:
[1] = system: Bax, Bcl-2, cyt c, Caspase-3 in HeLa cells; assay: Western blot analysis of apoptotic proteins, HeLa; assay type: cell-based, human; details: 24 h
Description: (§1) Bax and Bcl-2 proteins are two key apoptosis regulators of Bcl-2 family that govern mitochondrial outer membrane permeabilization (MOMP). To investigate the effects of 1b on Bax and Bcl-2 expressions and its association with cell apoptosis and proliferation, HeLa and MCF-7 cells were treated with different concentration of 1b for 24h before western blot analysis (Fig 6). […] Treatment with 1b led to Δψm depolarization, MOMP enhancing and pro-apoptotic proteins release.
(§2) Cytochrome complex (cyt c) and Caspase-3 play important roles in the process of cell apoptosis. In our case, the effects of 1b on the expression of cyt c and Caspase-3 were examined by treatment of HeLa and MCF-7 cells with different concentration of 1b. […] Treatment with 1b promoted the translocation of cyt c from the mitochondria to cytoplasm. In addition, the amount of 17 kDa cleaved Caspase-3 increased, accompanying with the reducing of zymogen.
(§3) Cells were seeded in 75 mL culture flask at a density of 8 ×10^5 (MCF-7) or 1.2×10^6 (HeLa) and incubated for 24 h. Thereafter, cells were treated with 0, 0.5, 1.5 or 2.5 μM 1b for 24h and harvested by trypsin into the EP tubes.
(§4) For total protein extraction, the cell pellets were lysed in RIPA buffer (Beyotime) supplemented with PMSF on ice for 30 min. After centrifuging at 12000 g for 10 min at 4°C, the cell suspension was collected as the whole cell protein. Cytoplasmic proteins and mitochondrial proteins were extracted from cells using Cell Mitochondria Isolation Kit according to the instructions of manufacturer. The protein concentrations were quantified with BCA Protein Assay Kit (Beyotime) and a plate reader according to the manufacturer’s protocols.
(§5) For western blot analysis, equal protein lysates were separated by electrophoresis on 12% SDS-PAGE gels, and transferred onto PVDF membranes. After blocking with 5% non-fat milk in PBS for 2.5 h at room temperature, the membranes were incubated with primary antibody overnight at 4°C: Bax (1:2000), Bcl-2 (1:1000), Caspase-3 (1:500), Cytochrome c (1:500), and β-actin (1:3000). Then, the blots were washed three times for 10 min each in Tris-NaCl and incubated with secondary HRP-conjugated goat anti-mouse or anti-rabbit IgGs (1:6000 or 1:5000) for 2.5 h at 37°C. The interest proteins were visualized using ECL, and β-actin served as the internal control.

[2] = system: Hela cells; assay: Mitochondrial potential assay (Rhodamine 123), HeLa; assay type: cell-based, human; details: 24 h
Description: Mitochondria play a key role in the process of apoptosis. After treatment with 1b for 24h and stained with Rhodamine 123, the mitochondrial membrane potential (Δψm) changes in HeLa and MCF-7 cells were observed by flow cytometer.
Cells were seeded in 6-well plates at a density of 0.8×10^5 (MCF-7) or 1.0×10^5 (HeLa) per well. After 24 h of incubation, cells were treated with 0, 0.5, 1.5 or 2.5 μM 1b for another 24h. Subsequently, cells were washed with PBS twice, incubated with 1 μg/mL Rhodamine 123 in 1 mL PBS at 37°C for 30 min, and analyzed by FACScan flow cytometer.

[3] = system: Hela cells; assay: Annexin V-FITC/PI apoptosis analysis, Hela; assay type: cell-based, human; details: 2.5 μM, 24 h (control 4.68%)
Description: (§6) The majority of cells (Hela, 88.44% and MCF-7 89.30%) in the control samples were viable and non-apoptotic. […] In addition, an increase in the Annexin V+PI+ population was also observed which indicates late apoptotic or dead cells.
(§7) Cell apoptosis was determined using AnnexinV-FITC/PI Assay Kit according to the manufacturers’ protocols. Briefly, cells were seeded in 6-well plates at a density of 1.2×10^5 (MCF-7) or 1.5×10^5 (HeLa) per well and incubated for 24 h. Then, cells were treated with 0, 0.5, 1.5 or 2.5 μM 1b for 24h. After washed with PBS twice, cells were re-suspended in 100 μL binding buffer containing 5 μL AnnexinV-FITC and 5 μL PI. Following 10 min of incubation, cells were detected by FACScan flow cytometer.

[4] = system: MCF-7 cells; assay: Annexin V-FITC/PI apoptosis analysis, MCF-7; assay type: cell-based, human; details: MCF-7, 2.5 μM, 24 h (control 3.28%)
Description: as §6, §7

[5] = system: Bax, Bcl-2, cyt c, Caspase-3 in MCF-7 cells; assay: Western blot analysis of apoptotic proteins, MCF-7; assay type: cell-based, human; details: 24 h
Description: as §1, §2, §3, §4, §5

[6] = system: Hela cells; assay: Flow cytometry cell cycle analysis (PI), Hela; assay type: cell-based, human; details: 1b 24 h
Description: (§8) To understand the mechanism driving the antiproliferative activity of the prepared compounds, we analyzed using flow cytometry the cell cycles of Hela and MCF-7 treated for 24h with the selected active compound 1b at 0.5, 1.0 and 2.0μM concentrations (Fig 2B). […] The percentage of apoptotic cells depended on the concentration of 1b.
(§9) Cells were dispensed in 25 ml culture bottle at a density of 5 ×10^5 per bottle. After 24 h incubation, they were treated with compound 1b at given concentrations for 24h. The cells were harvested by 0.05% trypsin (Sigma, St. Louis, MO), then collected by centrifugation, washed with PBS, and fixed with 10 ml ice-cold 70% ethanol at 4°C overnight. After washed with PBS, the cells were suspended in 1ml propidium iodide (PI; 50 mg/L; Sigma, St. Louis, MO) solution supplemented with 1 g/L RNase A (Sigma, St. Louis, MO). Finally, the samples were analyzed by FACScan flow cytometer (Becton Dickinson, Franklin, NJ, USA).

[7] = system: MCF-7 cells; assay: Flow cytometry cell cycle analysis (PI), MCF-7; assay type: cell-based, human; details: MCF-7, 1b 24 h
Description: as §8, §9

[8] = system: oral carcinoma (KB) cells; assay: MTT antiproliferative assay, KB; assay type: cell-based, human; details: 24 h of drug exposure, mean±SD of 3 experiments
Description: (§10) In vitro antiproliferative activity against three human tumor cell lines, including gastric adenocarcinoma (SGC-7901), oral carcinoma (KB) and fibrosarcoma (HT-1080), was evaluated using the MTT assay with cis-platinum (Cpt) as the positive control.
(§11) The antiproliferative activity of the synthetic compounds was measured by 3-(4, 5- dimethylthiazol-2-yl)-2, 5-diphenyltetrazolium bromide (MTT) assay. Cells were seeded in 96-well plates (Corning, NY, USA) at a density of 8×10^3 per well. After 24 h of incubation, cells were treated with different concentrations (0.1, 0.3, 1, 3 and 10 μg/ml) of the EM-A dimers for the indicated time periods. Afterwards, MTT (Sigma, St. Louis, MO) solution [5.0 mg/ml in phosphate-buffered saline (PBS)] was added (20 μl/well) and incubated for another 4 h at 37°C. The purple formazan crystals were then dissolved in 100 μl dimethyl sulfoxide (DMSO). After 5 min, the plates were read on a plate microreader (TECANSPECTRA, Wetzlar, Germanay) at 490 nm. The IC50 values were obtained using the software of Dose–Effect Analysis with Microcomputers and were defined as concentration of drug causing 50% inhibition in absorbance compared with control cells. Assays were performed in triplicate from three independent experiments.

[9] = system: normal mouse fibroblast cells (L929); assay: MTT assay, toxicity against normal fibroblasts L929; assay type: cell-based
Description: as §11

[10] = system: gastric adenocarcinoma (SGC-7901) cells; assay: MTT antiproliferative assay, SGC-7901; assay type: cell-based, human; details: mean±SD of 3 experiments
Description: as §10, §11

[11] = system: fibrosarcoma (HT-1080) cells; assay: MTT antiproliferative assay, HT-1080; assay type: cell-based, human; details: mean±SD of 3 experiments
Description: as §10, §11

[12] = system: hepatocellular carcinoma (HepG-2) cells; assay: MTT antiproliferative assay, HepG-2; assay type: cell-based, human; details: 24 h of drug exposure, mean±SD of 3 experiments
Description: (§12) All cell lines were purchased from American Type Culture Collection (ATCC, Manassas, VA, USA). Non-small cell lung carcinoma cells (A549), hepatocellular carcinoma cells (HepG-2) and breast carcinoma cells (MCF-7) were cultured in DMEM medium (Sigma, St. Louis, MO, USA), while gastric carcinoma cells (BGC-823), laryngeal carcinoma cells (Hep2), cervical carcinoma cells (HeLa) were cultured in RPMI-1640 medium (Sigma, St. Louis, MO, USA), which were supplemented with 10% fetal bovine serum (FBS; TBD, Tianjin, China) at 37°C in humidified atmosphere with 5% CO2.
as §11, with “The IC50 values were obtained using the software of Dose–Effect Analysis with Microcomputers and were defined as concentration of drug causing 50% inhibition in absorbance compared with control cells. Assays were performed in triplicate from three independent experiments.” left out

[13] = system: non-small cell lung carcinoma (A549) cells; assay: MTT antiproliferative assay, A549; assay type: cell-based, human; details: 24 h of drug exposure, mean±SD of 3 experiments
Description: as §12
as §11, with “The IC50 values were obtained using the software of Dose–Effect Analysis with Microcomputers and were defined as concentration of drug causing 50% inhibition in absorbance compared with control cells. Assays were performed in triplicate from three independent experiments.” left out

[14] = system: breast carcinoma (MCF-7) cells; assay: MTT antiproliferative assay, MCF-7; assay type: cell-based, human; details: 24 h of drug exposure, mean±SD of 3 experiments
Description: as §12
as §11, with “The IC50 values were obtained using the software of Dose–Effect Analysis with Microcomputers and were defined as concentration of drug causing 50% inhibition in absorbance compared with control cells. Assays were performed in triplicate from three independent experiments.” left out

[15] = system: gastric carcinoma (BGC-823) cells; assay: MTT antiproliferative assay, BGC-823; assay type: cell-based, human; details: 24 h of drug exposure, mean±SD of 3 experiments
Description: as §12
as §11, with “The IC50 values were obtained using the software of Dose–Effect Analysis with Microcomputers and were defined as concentration of drug causing 50% inhibition in absorbance compared with control cells. Assays were performed in triplicate from three independent experiments.” left out

[16] = system: laryngeal carcinoma (Hep2) cells; assay: MTT antiproliferative assay, Hep2; assay type: cell-based, human; details: 24 h of drug exposure, mean±SD of 3 experiments
Description: as §12
as §11, with “The IC50 values were obtained using the software of Dose–Effect Analysis with Microcomputers and were defined as concentration of drug causing 50% inhibition in absorbance compared with control cells. Assays were performed in triplicate from three independent experiments.” left out

[17] = system: cervical carcinoma (HeLa) cells; assay: MTT antiproliferative assay, HeLa; assay type: cell-based, human; details: 24 h of drug exposure, mean±SD of 3 experiments
Description: as §12
as §11, with “The IC50 values were obtained using the software of Dose–Effect Analysis with Microcomputers and were defined as concentration of drug causing 50% inhibition in absorbance compared with control cells. Assays were performed in triplicate from three independent experiments.” left out

[18] = HeLa, 0.5, 1.5, 2.5 μM, vs control, dose-dependent, P<0.01
[19] = MCF-7, 0.5, 1.5, 2.5 μM, vs control, dose-dependent, P<0.01
[20] = Homo sapiens, SGC-7901, 24 h of drug exposure
[21] = Homo sapiens, HT-1080, 24 h of drug exposure

CCC1OC(=O)C(C)C(OC2CC(C)(OC)C(O)C(C)O2)C(C)C(OC2OC(C)CC(N(C)CC=CCN(C)C3CC(C)OC(OC4C(C)C(OC5CC(C)(OC)C(O)C(C)O5)C(C)C(=O)OC(CC)C(C)(O)C(O)C(C)C(=O)C(C)CC4(C)OC)C3O)C2O)C(C)(OC)CC(C)C(=O)C(C)C(O)C1(C)O (centres unmarked) [Compound 1b]
BCL-2 expression [1, 18]: decreased
Bax expression [1, 18]: significantly increased
amount of 17 kDa cleaved Caspase-3 ([1]; HeLa, 0.5 to 2.5 μM): increased
expression of cyt c in the cytoplasm ([1]; HeLa, concentration increased from 0.5 to 2.5 μM): increased
mitochondrial membrane potential (Rhodamine 123) ([2]; 0.5 μM): 74.17%
mitochondrial membrane potential (Rhodamine 123) ([2]; 2.5 μM): 1.00%
early apoptotic cell population (lower right) [3]: 30.30%
early apoptotic cell population (lower right) [4]: 54.84%
BCL-2 expression [5, 19]: decreased
Bax expression [5, 19]: significantly increased
amount of 17 kDa cleaved Caspase-3 ([5]; MCF-7, 0.5 to 2.5 μM): increased
expression of cyt c in the cytoplasm ([5]; MCF-7, concentration increased from 0.5 to 2.5 μM): increased
percentage of SubG1 peaks ([6]; highest concentration (control 2.28%)): 20.06%
percentage of G0/G1 peaks ([6]; highest concentration (control 55%)): 35%
percentage of SubG1 peaks ([7]; highest concentration (control 3.62%)): 22.51%
percentage of G0/G1 peaks ([7]; highest concentration (control 61%)): 45%

CCC1OC(=O)C(C)C(O)C(C)C(OC2OC(C)CC(N(C)CC=CCN(C)C3CC(C)OC(OC4C(C)C(OC5CC(C)(OC)C(O)C(C)O5)C(C)C(=O)OC(CC)C(C)(O)C(O)C(C)C(=O)C(C)CC4(C)OC)C3O)C2O)C(C)(OC)CC(C)C(=O)C(C)C(O)C1(C)O (centres unmarked) [Compound 1i]
IC50 ([8]; Homo sapiens, KB): 3.1 ± 0.3 µM
IC50 ([9]; L929, 24 h of drug exposure): > 100 µM
IC50 [10, 20]: 27.1 ± 2.2 µM
IC50 [11, 21]: 11.9 ± 0.8 µM

CCC1OC(=O)C(C)C(O)C(C)C(OC2OC(C)CC(N(C)CC=CCN(C)C3CC(C)OC(OC4C(C)C(OC5CC(C)(OC)C(O)C(C)O5)C(C)C(=O)OC(CC)C(C)(O)C(O)C(C)C(=NO)C(C)CC4(C)OC)C3O)C2O)C(C)(OC)CC(C)C(=NO)C(C)C(O)C1(C)O (centres unmarked) [Compound 1j]
IC50 ([8]; Homo sapiens, KB): 26.4 ± 2.4 µM
IC50 ([9]; L929, 24 h of drug exposure): > 100 µM
IC50 [10, 20]: 30.6 ± 2.8 µM
IC50 [11, 21]: 23.7 ± 2.2 µM

N.N.[Cl][Pt][Cl] [Cpt, cis-platinum]
IC50 [12]: 4.7 ± 0.4 µM
IC50 [13]: 5.8 ± 0.2 µM
IC50 [8]: 4.7 ± 0.3 µM
IC50 ([9]; 24 h of drug exposure): 18.5 µM
IC50 [14]: 2.9 ± 0.1 µM
IC50 [15]: 11.8 ± 0.2 µM
IC50 ([10]; 24 h of drug exposure): 4.9 ± 0.4 µM
IC50 ([11]; 24 h of drug exposure): 19.7 ± 1.5 µM
IC50 [16]: 12.3 ± 1.3 µM
IC50 [17]: 17.4 ± 1.4 µM

CC[C@H]1OC(=O)[C@H](C)[C@@H](O[C@H]2C[C@@](C)(OC)[C@@H](O)[C@H](C)O2)[C@H](C)[C@@H](O[C@@H]2O[C@H](C)C[C@H](N(C)C)[C@H]2O)[C@](C)(OC)C[C@@H](C)C(=O)[C@H](C)[C@@H](O)[C@]1(C)O [clarithromycin, reference compound]
IC50 ([8]; Homo sapiens, KB): > 100 µM
IC50 ([9]; L929, 24 h of drug exposure): > 100 µM
IC50 [10, 20]: > 100 µM
IC50 [11, 21]: > 100 µM
